Measured values: a compilation of properties of binary mixtures (doi:10.1039/c7qm00510e)

Assay: xn = mol fraction of the nth substance listed
Settings: 101 kPa

CCCCCCCCCCOS(=O)(=O)[O-].CC[n+]1ccn(C)c1 + O
electrical conductivity [S/m]
Settings | 303.15 K | 313.15 K | 323.15 K | 333.15 K | 343.15 K | 353.15 K | 363.15 K | 372.95 K
x1 = 0.075 | 2.53 | 3.16 | 3.83 | 4.55 | 5.29 | 6.06 | – | –
x1 = 0.317 | – | – | – | – | 1.34 | 1.63 | 1.96 | 2.23
